Assay: water solubility / miscibility with water
Assay type: physicochemical

Compound | water solubility (miscibility with water)
CCCCCCCC[n+]1ccccc1.N#C[N-]C#N [N-octylpyridinium dicyanamide] | water-immiscible
CCCCCCCC[n+]1cccc(C)c1.N#C[N-]C#N [N-octyl-3-methylpyridinium dicyanamide, 3-Methyl-1-octylpyridinium dicyanamide] | water-immiscible
CCCC[n+]1cccc(C)c1.N#C[N-]C#N [N-butyl-3-methylpyridinium dicyanamide, 3-Methyl-1-butylpyridinium dicyanamide] | water-miscible
CCCC[n+]1ccccc1.N#C[N-]C#N [N-butylpyridinium dicyanamide] | water-miscible

Source: patent publication US20120330023A1, “Alkyl Pyridinium Dicyanamides and Method For The Production Thereof” (LONZA AG, priority 2004, published 2012)
